SMILES strings stand for the structures. pIC50: −log10 of the molar value.

Data set [1] relates to SK-CO-1 cells (CRC, G12V). Nature of the data set: SK-CO-1 CTG proliferation assay (120 h). It counts as cell-based. As to conditions: Homo sapiens, CellTiter-Glo. How it is done: (§1) SK—CO-1 cells (ATCC HTB-39) are dispensed into 384-well plates, flat and clear bottom (Greiner, PNr. 781091) at a density of 500 cells per well in 60 μL EMEM (Sigma M5650)+10% Fetal Calf Serum (HyClone, PNr.: SH30084.03) and incubated at 37° C. in a CO2 incubator overnight. The next day, compounds (10 mM stock in DMSO) are added with the ECHO acoustic liquid handler system (Beckman Coulter), including DMSO controls. Plates are incubated for 120 h, and cell viability is measured using CellTiter-Glo luminescent cell viability reagent (Promega product code G7570). Viability (stated as percent of control) is defined as relative luminescence units RLU of each well divided by the RLU of cells in DMSO controls. IC50 values are determined from viability measurements by non-linear regression using a four-parameter model.

Data set [2] has as its system AsPC-1 cells (pancreatic cancer, G12D). In words: AsPC-1 CTG proliferation assay (120 h). The data set is classed as cell-based. As to conditions: Homo sapiens, ASPC1, CellTiter-Glo. How it is done: The CTG assay is designed to measure quantitatively the proliferation of AsPC-1 cells (ATCC […]), using the CellTiter Glow Assay Kit (Promega G7571). Cells are grown in RPMI medium (ATCC) supplemented with Fetal Calf Serum (Life Technologies, Gibco BRL, Cat. No. 10270-106). On “day 0” 2000 AsPC-1 cells are seeded in 60 μL RPMI ATCC+10% FCS+ Penstrep in a 384-well plate, flat and clear bottom (Greiner, PNr. 781091). Cells are then incubated in the plates at 37° C. in a CO2 incubator overnight. On day 1, compounds (10 mM stock in DMSO) are added with the ECHO acoustic liquid handler system (Beckman Coulter), including DMSO controls. Plates are incubated for 120 h, and cell viability is measured using CellTiter-Glo luminescent cell viability reagent (Promega product code G7570). Viability (stated as percent of control) is defined as relative luminescence units RLU of each well divided by the RLU of cells in DMSO controls. IC50 values are determined from viability measurements by non-linear regression using a four-parameter model.
In general terms: In ATP-based viability assays light output follows the ATP content of the culture.

The nature of data set [3]: Metabolic (microsomal) stability assay, HLM. The data set is classed as in vitro ADME. The settings on record: human liver microsomes, 1 μM test compound, predicted clearance as percent of liver blood flow. How it is done: The metabolic degradation of the test compound is assayed at 37° C. with pooled liver microsomes (mouse (MLM), rat (RLM) or human (HLM)). The final incubation volume of 48 μL per time point contains TRIS buffer (pH 7.5; 0.1 M), magnesium chloride (6.5 mM), microsomal protein (0.5 mg/mL for mouse/rat, 1 mg/mL for human specimens) and the test compound at a final concentration of 1 μM. Following a short preincubation period at 37° C., the reactions are initiated by addition of 12 μL beta-nicotinamide adenine dinucleotide phosphate, reduced form (NADPH, 10 mM) and terminated by transferring an aliquot into solvent after different time points (0, 5, 15, 30, 60 min). Additionally, the NADPH-independent degradation is monitored in incubations without NADPH, terminated at the last time point by addition of acetonitrile. The quenched incubations are pelleted by centrifugation (4,000 rpm, 15 min). An aliquot of the supernatant is assayed by LC-MS/MS to quantify the concentration of parent compound in the individual samples.
In vitro intrinsic clearance (CLint, in vitro) is calculated from the time course of the disappearance of the test drug during the microsomal incubation. Each plot is fitted to the first-order elimination rate constant as C(t)=C0*exp(−ke*t), where C(t) and C0 are the concentration of unchanged test drug at incubation time t and that at preincubation and ke is the disappearance rate constant of the unchanged drug. Subsequently, CLint, in vitro (μL min^−1·amount protein) values are converted to predicted CLint, in vivo (mL min^−1 kg^−1) from incubation parameters according to the equation CLint, in vivo=CLint, in vitro×(incubation volume (ml)/amount protein (mg))×(amount protein (mg)/g liver tissue)×(liver weight/body wt.). For better across species comparison the predicted clearance is expressed as percent of the liver blood flow [% QH] (mL min^−1 kg^−1) in the individual species. In general, high stability (corresponding to low % QH) of the compounds across species is desired.

For the next data set, the target named is T1, KRAS (G12D)::SOS1 (Homo sapiens, UniProt P01116, G12D).
T1 construct: KRAS (G12D) 1-169, N-terminal 6His-tag, C-terminal avi-tag; 6His-tag (N); purchased Xtal BioStructures, Inc. (KRAS G12D); Viva Biotech Ltd (SOS1)
Nature of the data set: KRAS::SOS1 AlphaScreen binding assay, KRAS G12D. On the procedure: Low IC50 values in this assay setting are indicative of strong inhibition of protein-protein interaction between SOS1 and KRAS:
These assays measure the inhibitory effect of compounds on KRAS mutant protein-protein interactions using the Alpha Screen technology by Perkin Elmer.
For the chosen highest assay concentration of 100 μM, 150 nL of compound solution are transferred from a 10 mM DMSO compound stock solution. A series of eleven fivefold dilutions per compound are transferred to the assay plate, compound dilutions are tested in duplicates. DMSO are added as backfill to a total volume of 150 nL.
The assays run on a fully automated robotic system in a darkened room below 100 Lux. To 150 nl of compound dilution 10 μl of a mix including KRAS mutant protein, SOS1 (final assay concentrations see above) and GDP nucleotide (Sigma G7127; final assay concentration 10 μM) in assay buffer (1×PBS, 0.1% BSA, 0.05% Tween 20) are added into columns 1-24. After 30 minutes incubation time 5 μl of Alpha Screen bead mix in assay buffer are added into columns 1-23.
Plates are kept at room temperature in a darkened incubator. After an additional 60 minutes incubation time the signal is measured in a PerkinElmer Envision HTS Multilabel Reader using the AlphaScreen specs from PerkinElmer.
IC50 values are calculated and analyzed with Boehringer Ingelheim's MEGALAB IC50 application using a 4 parametric logistic model.

In the next data set the test system is LOVO cells (CRC, G13D). Nature of the data set: LOVO CTG proliferation assay (120 h). As to conditions: Homo sapiens, CellTiter-Glo. The data set is classed as cell-based. How it is done:
as §1, with “LOVO” for “SK—CO-1”, “CCL-229)” for “HTB-39)”, “1000” for “500”, “DMEM” for “EMEM”, “D6429)+10%” for “M5650)+10%”

T1 sequence (P01116 1-169 isoform P01116-2 G12D): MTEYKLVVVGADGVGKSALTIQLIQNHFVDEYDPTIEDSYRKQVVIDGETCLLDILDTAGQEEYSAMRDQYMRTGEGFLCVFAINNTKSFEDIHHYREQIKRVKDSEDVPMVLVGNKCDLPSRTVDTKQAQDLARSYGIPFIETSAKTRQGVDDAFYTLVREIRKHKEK

`C[C@H]1CNCCCN1c1nccc(-c2onc3c2CCC[C@@]32CCCc3sc(N)c(C#N)c32)n1` [If-1]: the pIC50 (in general, −log10 of the IC50, conventionally taken in molar units) in data set [1] is 5.56; in data set [2], 5.18; at KRAS (G12D)::SOS1, 8.30; in the data set on LOVO cells (CRC, G13D), 5.51. For the same compound, in data set [3], the “HLM QH” value is 25%.
For the compound `C[C@H]1CNCCN1c1nccc(-c2noc3c2CCC[C@@]32CCCc3sc(N)c(C#N)c32)n1` [IIf-1], the pIC50 in data set [1] is 6.22; in data set [2] it was 5.82; in the data set with LOVO cells (CRC, G13D) it was 6.32. In data set [3], the “HLM QH” value was 29%.
For the compound `C[C@H](Oc1ccnc(-c2noc3c2CCC[C@@]32CCCc3sc(N)c(C#N)c32)n1)[C@@H]1CCCN1C` [IIb-3], the pIC50 in data set [1] was 6.55; in data set [2], 6.19; at KRAS (G12D)::SOS1, 8.70. Besides, the “HLM QH” value in data set [3] was 64%.
In the case of `C[C@H](Oc1nccc(-c2noc3c2CCC[C@@]32CCCc3sc(N)c(C#N)c32)n1)[C@@]1(C)CCCN1C` [IIe-1], the pIC50 in data set [1] is 5.99; in data set [2], 5.26; at KRAS (G12D)::SOS1, 8.40; in the data set with LOVO cells (CRC, G13D), 5.42. Further, in data set [3], the “HLM QH” value was greater than 88%.
The corresponding values for `C[C@H]1[C@@H]2CCCN2CCCN1c1nccc(-c2onc3c2CCC[C@@]32CCCc3sc(N)c(C#N)c32)n1` [Id-1] are 5.33, 5.45, 9.00, 5.00 and greater than 88%.
The corresponding values for `C[C@@H]1NCCCN(c2nccc(-c3onc4c3CCC[C@@]43CCCc4sc(N)c(C#N)c43)n2)[C@H]1C` [Ib-2] are 6.34, 5.22, 8.30, 5.96 and 51%.
For the compound `C[C@H]1CNCCCN1c1nccc(-c2noc3c2CCC[C@@]32CCCc3sc(N)c(C#N)c32)n1` (single isomer, unassigned) [IIb-5], the negative logarithm of the IC50 (pIC50) was 6.25 in data set [1]; 5.44 in data set [2]; 8.52 on KRAS (G12D)::SOS1; 5.54 in the data set with LOVO cells (CRC, G13D). In data set [3], the “HLM QH” value is given as less than 24%.
For the compound `C[C@H]1CNCCCN1c1nccc(-c2noc3c2CSCC32CCCc3sc(N)c(C#N)c32)n1` (some centres unmarked) [IIb-4], the negative logarithm of the IC50 (pIC50) is 5.62 in data set [1]; 5.38 in data set [2]; 7.89 at KRAS (G12D)::SOS1; 5.78 in the data set with LOVO cells (CRC, G13D).
Regarding `CC1Cc2c(-c3ccnc(N4CCCNC[C@@H]4C)n3)noc2C2(CCCc3sc(N)c(C#N)c32)C1` (some centres unmarked) [IIb-1], the pIC50 in data set [1] was 5.57; in data set [2], 5.45; on KRAS (G12D)::SOS1, 7.51; with LOVO cells (CRC, G13D) it was 5.62. In data set [3], the “HLM QH” value is recorded as less than 24%.
For `C[C@H]1CNCCCN1c1ncnc(-c2onc3c2CCC[C@@]32CCCc3sc(N)c(C#N)c32)n1` [Ib-4], in that order: 6.03, less than 4.60, 8.40, 5.14 and 34%.
As to `C[C@H]1CNCCCN1c1nccc(-c2noc3c2CC(F)(F)CC32CCCc3sc(N)c(C#N)c32)n1` (some centres unmarked) [IIb-2], the pIC50 in data set [1] is 5.20; in data set [2] it was 5.29; at KRAS (G12D)::SOS1 it was 7.68; in the data set with LOVO cells (CRC, G13D) it was 5.49. Also, the “HLM QH” value in data set [3] is 39%.
Regarding `C[C@H](Oc1nccc(-c2onc3c2CCC[C@@]32CCCc3sc(N)c(C#N)c32)n1)[C@@H]1C[C@@H]2C[C@@H]2N1C` [Ih-1], the pIC50 is 6.40 in data set [1]; 5.38 in data set [2]; 8.40 at KRAS (G12D)::SOS1; 6.21 in the data set on LOVO cells (CRC, G13D). For the same compound, the “HLM QH” value in data set [3] is greater than 88%.
For `C[C@H]1CNCCCN1c1nccc(-c2noc3c2OCCC32CCCc3sc(N)c(C#N)c32)n1` (some centres unmarked) [IIb-7], in that order: 6.34, 5.55, 8.70, 6.32 and less than 24%.
Take `C[C@H](Oc1nccc(-c2onc3c2CCC[C@@]32CCCc3sc(N)c(C#N)c32)n1)[C@@H]1C[C@@H]2C[C@@H]2N1` [If-2]: the pIC50 in data set [1] was 5.10; in data set [2], less than 4.60; at KRAS (G12D)::SOS1, 8.22; in the data set on LOVO cells (CRC, G13D), 4.96.
For `CO[C@@H]1C[C@@H]([C@H](C)Oc2nccc(-c3onc4c3CCC[C@@]43CCCc4sc(N)c(C#N)c43)n2)N(C)C1` [Ie-1], the pIC50 was 5.60 in data set [1]; 5.26 in data set [2]; 8.70 at KRAS (G12D)::SOS1; 6.48 in the data set on LOVO cells (CRC, G13D). Moreover, in data set [3], the “HLM QH” value was greater than 88%.
For `CC(Oc1nccc(-c2onc3c2CCC[C@@]32CCCc3sc(N)c(C#N)c32)n1)C12CCCN1CCC2` (some centres unmarked) [Ie-5], in that order: 6.10, 5.23, 8.40, 6.75 and 63%.
On to `C[C@H](Oc1nccc(-c2onc3c2CCC[C@@]32CCCc3sc(N)c(C#N)c32)n1)[C@@H]1C[C@@H](F)CN1C` [Ie-2], for which the pIC50 in data set [1] is 5.99; in data set [2], 5.59; at KRAS (G12D)::SOS1 it was 8.70; in the data set with LOVO cells (CRC, G13D), 6.25. Further, in data set [3], the “HLM QH” value is given as greater than 88%.
The corresponding values for `CCN1[C@H]2C[C@H]2C[C@H]1[C@H](C)Oc1nccc(-c2onc3c2CCC[C@@]32CCCc3sc(N)c(C#N)c32)n1` [Ie-3] are 6.09, 5.10, 8.52, 6.27 and greater than 88%.

Source of the values: patent US20250129096A1, “ANNULATED 2-AMINO-3-CYANO THIOPHENES AND DERIVATIVES FOR THE TREATMENT OF CANCER” (Boehringer Ingelheim Int'l GmbH Corp., priority 2021, published 2025).
